Article PMC13059705, “Peptidoglycan DD-peptidases have distinct activities that impact fitness of Acinetobacter baumannii” (mBio, 2026)

Assays:
PBP6b = target: T1, PBP6b (Acinetobacter baumannii, UniProt A0ABX6CI93); experiment: bocillin-binding assay with SDS-PAGE; conditions: covalent; labelled compound; used to confirm identity of the purified protein
T1 construct: gene dacD; Triton X-100 extraction, Ni-NTA
T1 sequence (A0ABX6CI93 22-439): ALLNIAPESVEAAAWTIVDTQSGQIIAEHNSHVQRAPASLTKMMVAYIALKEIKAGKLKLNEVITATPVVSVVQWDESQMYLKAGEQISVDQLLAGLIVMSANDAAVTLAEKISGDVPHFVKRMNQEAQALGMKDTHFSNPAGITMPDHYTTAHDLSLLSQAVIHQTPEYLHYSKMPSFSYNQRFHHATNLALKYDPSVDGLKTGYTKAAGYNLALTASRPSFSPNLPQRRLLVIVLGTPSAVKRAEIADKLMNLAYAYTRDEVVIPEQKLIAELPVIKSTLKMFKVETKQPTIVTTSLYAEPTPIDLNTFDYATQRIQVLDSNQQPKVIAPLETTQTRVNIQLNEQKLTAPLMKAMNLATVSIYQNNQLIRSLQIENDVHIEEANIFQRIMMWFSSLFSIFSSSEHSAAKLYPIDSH

PBP5/6a = target: T2, PBP5/6a (Acinetobacter baumannii, UniProt G1C735); experiment: bocillin-binding assay with SDS-PAGE; conditions: covalent; labelled compound; used to confirm identity of the purified protein
T2 construct: gene dacC; Triton X-100 extraction, Ni-NTA
T2 sequence (G1C735 20-382): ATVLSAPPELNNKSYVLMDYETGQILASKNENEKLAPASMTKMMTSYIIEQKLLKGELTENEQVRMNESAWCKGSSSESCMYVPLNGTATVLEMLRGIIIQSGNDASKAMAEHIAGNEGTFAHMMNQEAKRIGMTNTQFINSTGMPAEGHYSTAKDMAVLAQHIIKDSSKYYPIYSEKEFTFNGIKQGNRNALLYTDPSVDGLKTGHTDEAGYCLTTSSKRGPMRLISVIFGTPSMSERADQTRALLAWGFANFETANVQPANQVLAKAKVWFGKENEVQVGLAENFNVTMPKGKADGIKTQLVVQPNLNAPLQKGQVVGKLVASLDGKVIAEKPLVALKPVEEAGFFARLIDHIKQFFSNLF

Question: With `Cc1cc(C)n2c1C=C1C=CC(CCC(=O)Nc3ccc(OCC(=O)N[C@@H]4C(=O)N5[C@@H]4SC(C)(C)[C@@H]5C(=O)O)cc3)=[N+]1[B-]2(F)F` [bocillin] as the molecule, how does the “bocillin-binding assay with SDS-PAGE” value (PBP6b) read?
Answer: Protein purity and identity were confirmed by SDS-PAGE and bocillin-binding assays

Question: What about the “bocillin-binding assay with SDS-PAGE” value (PBP5/6a) of the same molecule?
Answer: Protein purity and identity were confirmed by SDS-PAGE and bocillin-binding assays
